Test results: patent US8754069B2, “Betulinic acid derivatives with antiviral activity” (priority 2011, dated 2014)

What follows are compounds tested on recombinant NL4-3 virus (NLRluc, Renilla luciferase in nef, Gag P373S) in MT-2 cells (assay: HIV Cell Culture Assay (luciferase reporter virus in MT-2 cells)). Conditions: NL43, 96 h, read-out: 10% FBS (EC50, uM).
Format: cell-based
Description: HIV Cell Culture Assay—MT-2 cells and 293T cells were obtained from the NIH AIDS Research and Reference Reagent Program. MT-2 cells were propagated in RPMI 1640 media supplemented with 10% heat inactivated fetal bovine serum, […]. The 293T cells were propagated in DMEM media supplemented with 10% heat inactivated fetal bovine serum (FBS), 100 units/ml penicillin G and 100 μg/ml streptomycin. The proviral DNA clone of NL4-3 was obtained from the NIH AIDS Research and Reference Reagent Program. A recombinant NL4-3 virus, in which a section of the nef gene from NL4-3 was replaced with the Renilla luciferase gene, was used as a reference virus. In addition, residue Gag P373 was converted to P373S. Briefly, the recombinant virus was prepared by transfection of the altered proviral clone of NL4-3. Transfections were performed in 293T cells using LipofectAMINE PLUS from Invitrogen (Carlsbad, Calif.), according to manufacturer's instruction. The virus was titered in MT-2 cells using luciferase enzyme activity as a marker. Luciferase was quantitated using the Dual Luciferase kit from Promega (Madison, Wis.), with modifications to the manufacturer's protocol. The diluted Passive Lysis solution was pre-mixed with the re-suspended Luciferase Assay Reagent and the re-suspended Stop & Glo Substrate (2:1:1 ratio). Fifty (50) μL of the mixture was added to each aspirated well on assay plates and luciferase activity was measured immediately on a Wallac TriLux (Perkin-Elmer). Antiviral activities of inhibitors toward the recombinant virus were quantified by measuring luciferase activity in cells infected for 4-days with NLRluc recombinants in the presence serial dilutions of the inhibitor. Table 1 is the key for the data in Table 2. Results

Row | SMILES | EC50 [µM]
1 | C=C(C)[C@@H]1CC[C@]2(NCCN3CCS(=O)(=O)CC3)CC[C@]3(C)[C@H](CC[C@@H]4[C@@]5(C)CC[C@H](OC(=O)C(C)(C)CC(=O)O)C(C)(C)[C@@H]5CC[C@]43C)[C@@H]12 [Example 1, 4-(((1R,3aS,5aR,5bR,7aR,9S,11aR,13aR,13bR)-3a-((2-(1,1-dioxido-4-thiomorpholinyl)ethyl)amino)-1-isopropenyl-5a,5b,8,8,11a-pentamethylicosahydro-1H-cyclopenta[a]chrysen-9-yl)oxy)-3,3-dimethyl-4-oxobutanoic acid] | < 0.1
2 | C=C(C)[C@@H]1CC[C@]2(NCCN3CCS(=O)(=O)CC3)CC[C@]3(C)[C@H](CC[C@@H]4[C@@]5(C)CC[C@H](OC(=O)CC(C)(C)C(=O)O)C(C)(C)[C@@H]5CC[C@]43C)[C@@H]12 [Example 2, 4-(((1R,3aS,5aR,5bR,7aR,9S,11aR,13aR,13bR)-3a-((2-(1,1-dioxido-4-thiomorpholinyl)ethyl)amino)-1-isopropenyl-5a,5b,8,8,11a-pentamethylicosahydro-1H-cyclopenta[a]chrysen-9-yl)oxy)-2,2-dimethyl-4-oxobutanoic acid] | < 0.1
3 | C=C(C)[C@@H]1CC[C@]2(NCCN3CCS(=O)(=O)CC3)CC[C@]3(C)[C@H](CC[C@@H]4[C@@]5(C)CC[C@H](OC(=O)CC(C)(C)CC(=O)O)C(C)(C)[C@@H]5CC[C@]43C)[C@@H]12 [Example 3, 5-(((1R,3aS,5aR,5bR,7aR,9aR,9S,11aR,3aR,13bR)-3a-((2-(1,1-dioxido-4-thiomorpholinyl)ethyl)amino)-1-isopropenyl-5a,5b,8,8,11a-pentamethylicosahydro-1H-cyclopenta[a]chrysen-9-yl)oxy)-3,3-dimethyl-5-oxopentanoic acid] | < 0.1
4 | C=C(C)[C@@H]1CC[C@]2(NCCN3CCOCC3)CC[C@]3(C)[C@H](CC[C@@H]4[C@@]5(C)CC[C@H](OC(=O)C(C)(C)CC(=O)O)C(C)(C)[C@@H]5CC[C@]43C)[C@@H]12 [Example 4, 3,3-dimethyl-4-oxo-4-((1R,3aS,5aR,5bR,7aR,9S,11aR,13aR,13bR)-5a,5b,8,8,11a-pentamethyl-3a-(2-morpholinoethylamino)-1-(prop-1-en-2-yl)icosahydro-1H-cyclopenta[a]chrysen-9-yloxy)butanoic acid] | < 0.1
5 | C=C(C)[C@@H]1CC[C@]2(NCCN3CCOCC3)CC[C@]3(C)[C@H](CC[C@@H]4[C@@]5(C)CC[C@H](OC(=O)CC(C)(C)C(=O)O)C(C)(C)[C@@H]5CC[C@]43C)[C@@H]12 [Example 5, 2,2-dimethyl-4-oxo-4-((1R,3aS,5aR,5bR,7aR,9S,11aR,13aR,13bR)-5a,5b,8,8,11a-pentamethyl-3a-(2-morpholinoethylamino)-1-(prop-1-en-2-yl)icosahydro-1H-cyclopenta[a]chrysen-9-yloxy)butanoic acid] | < 0.1
6 | CC(C)[C@@H]1CC[C@]2(NCCN3CCS(=O)(=O)CC3)CC[C@]3(C)[C@H](CC[C@@H]4[C@@]5(C)CC[C@H](OC(=O)CC(C)(C)C(=O)O)C(C)(C)[C@@H]5CC[C@]43C)[C@@H]12 [Example 6, 4-(((1S,3aS,5aR,5bR,7aR,9S,11aR,13aR,13bR)-3a-((2-(1,1-dioxido-4-thiomorpholinyl)ethyl)amino)-1-isopropyl-5a,5b,8,8,11a-pentamethylicosahydro-1H-cyclopenta[a]chrysen-9-yl)oxy)-2,2-dimethyl-4-oxobutanoic acid] | < 0.1
7 | CC(C)[C@@H]1CC[C@]2(NCCN3CCS(=O)(=O)CC3)CC[C@]3(C)[C@H](CC[C@@H]4[C@@]5(C)CC[C@H](OC(=O)CC(C)(C)CC(=O)O)C(C)(C)[C@@H]5CC[C@]43C)[C@@H]12 [Example 7, 5-(((1S,3aS,5aR,5bR,7aR,9aR,9S,11aR,3aR,13bR)-3a-((2-(1,1-dioxido-4-thiomorpholinyl)ethyl)amino)-1-isopropyl-5a,5b,8,8,11a-pentamethylicosahydro-1H-cyclopenta[a]chrysen-9-yl)oxy)-3,3-dimethyl-5-oxopentanoic acid] | < 0.1
8 | C=C(C)[C@@H]1CC[C@]2(NCCN3CCC(S(C)(=O)=O)CC3)CC[C@]3(C)[C@H](CC[C@@H]4[C@@]5(C)CC[C@H](OC(=O)C(C)(C)CC(=O)O)C(C)(C)[C@@H]5CC[C@]43C)[C@@H]12 [Example 8, 3,3-dimethyl-4-oxo-4-(((1R,3aS,5aR,5bR,7aR,9S,11aR,13aR,13bR)-5a,5b,8,8,11a-pentamethyl-3a-((2-(4-(methylsulfonyl)piperidin-1-yl)ethyl)amino)-1-(prop-1-en-2-yl)icosahydro-1H-cyclopenta[a]chrysen-9-yl)oxy)butanoic acid] | < 0.1
9 | C=C(C)[C@@H]1CC[C@]2(NCCN3CCC(S(C)(=O)=O)CC3)CC[C@]3(C)[C@H](CCC4[C@@]5(C)CC[C@H](OC(=O)CC(C)(C)C(=O)O)C(C)(C)[C@@H]5CC[C@]43C)[C@@H]12 (stereo partly drawn) [Example 9, 2,2-dimethyl-4-oxo-4-(((1R,3aS,5aR,5bR,7aR,9S,11aR,13aR,13bR)-5a,5b,8,8,11a-pentamethyl-3a-((2-(4-(methylsulfonyl)piperidin-1-yl)ethyl)amino)-1-(prop-1-en-2-yl)icosahydro-1H-cyclopenta[a]chrysen-9-yl)oxy)butanoic acid] | < 0.1
10 | C=C(C)[C@@H]1CC[C@]2(NCCN(C)C)CC[C@]3(C)[C@H](CC[C@@H]4[C@@]5(C)CC[C@H](OC(=O)CC(C)(C)C(=O)O)C(C)(C)[C@@H]5CC[C@]43C)[C@@H]12 [Example 10, 4-(((1R,3aS,5aR,5bR,7aR,9S,11aR,13aR,13bR)-3a-((2-(dimethylamino)ethyl)amino)-5a,5b,8,8,11a-pentamethyl-1-(prop-1-en-2-yl)icosahydro-1H-cyclopenta[a]chrysen-9-yl)oxy)-2,2-dimethyl-4-oxobutanoic acid] | < 0.1
11 | C=C(C)[C@@H]1CC[C@]2(NCCN3CCN(S(C)(=O)=O)CC3)CC[C@]3(C)[C@H](CC[C@@H]4[C@@]5(C)CC[C@H](OC(=O)CC(C)(C)C(=O)O)C(C)(C)[C@@H]5CC[C@]43C)[C@@H]12 [Example 11, 2,2-dimethyl-4-oxo-4-(((1R,3aS,5aR,5bR,7aR,9S,11aR,11bR,13aR,13bR)-5a,5b,8,8,11a-pentamethyl-3a-((2-(4-(methylsulfonyl)piperazin-1-yl)ethyl)amino)-1-(prop-1-en-2-yl)icosahydro-1H-cyclopenta[a]chrysen-9-yl)oxy)butanoic acid] | < 0.1
